Assays:
[1] = tested on: human pancreatic cancer Bxpc3-18.2; assay: Bxpc3-18.2 nude mouse xenograft tumor model, gemcitabine as control; type: in vivo
Protocol: When the tumor grew to a volume of about 100 mm^3 (day 39 after inoculation), 48 animals with good tumor growth were selected and equally divided into 6 groups (day 0) according to the tumor volume, with 8 animals in each group. […] The tumor diameters were measured twice a week, the mice were weighed, and the data were recorded. The tumor growth was dynamically observed by measuring the tumor diameters at different times after administration. The experiment was ended on day 28, the mice were asphyxiated with carbon dioxide, and then the tumors were stripped off and weighed.

[2] = tested on: human gastric cancer NUGC-4-18.2; assay: NUGC-4-18.2 nude mouse xenograft tumor model, cisplatin as control; details: 6 mg/kg i.v. qw×3, day 20
Protocol: 2) In this experiment, human gastric cancer NUGC-4-18.2 was selected to construct a nude mouse xenograft tumor model. When the tumor grew to a volume of about 120 mm^3 (day 6 after inoculation), 64 animals with good tumor growth were selected and equally divided into 8 groups (day 0) according to the tumor volume, with 8 animals in each group. […] The tumor diameters were measured twice a week, the mice were weighed, and the data were recorded. The change in the tumor growth was dynamically observed by measuring the tumor diameters at different times after administration. The experiment was ended on day 20, the animals were asphyxiated with carbon dioxide, and then the tumors were stripped off and weighed.

human CLDN18.2 (human) = human CLDN18.2 (human) (UniProt P56856); assay: flow cytometry on HEK293-human CLDN18.2 cells, four-parameter fit; given as ED50
mouse CLDN18.2 (mouse) = mouse CLDN18.2 (mouse) (UniProt P56857); assay: flow cytometry on HEK293-mouse CLDN18.2 cells, four-parameter fit; given as ED50
[3] = target: T1, cynomolgus monkey CLDN18.2 (cynomolgus monkey, UniProt A0A2K5VVB4 1-261); assay: flow cytometry on CHO-K1-cynomolgus monkey CLDN18.2 cells, four-parameter fit; given as ED50
T1 chain: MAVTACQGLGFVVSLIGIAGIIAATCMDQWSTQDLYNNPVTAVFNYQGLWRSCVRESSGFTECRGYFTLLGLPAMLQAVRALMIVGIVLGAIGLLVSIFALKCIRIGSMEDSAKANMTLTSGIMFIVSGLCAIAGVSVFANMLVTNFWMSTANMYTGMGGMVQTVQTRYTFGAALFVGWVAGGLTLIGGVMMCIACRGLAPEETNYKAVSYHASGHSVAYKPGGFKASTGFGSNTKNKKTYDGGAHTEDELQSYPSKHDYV

With Nc1ccn([C@@H]2O[C@H](CO)[C@@H](O)C2(F)F)c(=O)n1 [Gemcitabine, gemcitabine, reference compound] the “tumor weight inhibition rate” value ([1]; 50 mg/kg i.v. biw×4, day 28) was 51.0% and the “tumor growth compared with the solvent control group” value ([1]; SYJS001-ADC 2, 4 and 8 mg/kg single, GEM 50 mg/kg biw×4, P<0.01) was “significantly inhibited”.

With N.N.[Cl][Pt][Cl] [cisplatin, reference compound] the “tumor weight inhibition rate” value [2] was 66.5%.

B1: SYJS001-ADC (recombinant anti-human CLDN18.2 monoclonal antibody-MMAE conjugate) (antibody, human IgG1, kappa, V domains shown)
VH: EVQLSESGGALVQPGESLRLSCAASGFTFSSYAMTWVRQAPGKGLEWVSSLSGSGRSTYYAASIKGRFTISRDNSKNTLYLQMSSLRAEDTAIYYCAKSLSYYHYYFDYWGQGTLVTVSS
VL: DIQLTQSPSFLSASVGDRVPITCRASQDISNYLAWYQQKPGKAPKLLIYSASTLQSGVPSRFSGSGSGTEFTLTISSLQPEDFASYHCQQVKTYPLTFGGGTKVEIKR
modifications: one molecule of MMAE conjugated via the linker NH2-PEG3-Val-Cit (LND1002) by an amide (isopeptide) bond to Q298 (i.e., Q295 according to Kabat numbering) of each heavy chain; mean DAR 2.0
notes: also called anti-CLDN18.2 antibody-drug conjugate SYJS001-ADC
For B1, the EC50 (human CLDN18.2 (human)) was 0.439 µg/mL, the EC50 (mouse CLDN18.2 (mouse)) was 0.717 µg/mL and the EC50 [3] was 0.648 µg/mL.

Source: patent publication US20250345447A1, “PHARMACEUTICAL COMPOSITION OF RECOMBINANT ANTI-HUMAN CLDN18.2 MONOCLONAL ANTIBODY-MMAE CONJUGATE” (CSPC MEGALITH BIOPHARMACEUTICAL CO., LTD., priority 2022, published 2025)
